SMILES | melting point
Cc1[nH]cc2c1-c1ccc(Cl)cc1C(c1ccccc1F)=NC2 | 226 to 227 °C
C=CC1OC(OC)C(OCc2ccccc2)C(OCc2ccccc2)C1OCc1ccccc1 (configuration not stated) | 46 to 47 °C
CCCN(CCC)C(C)(C)CC(C)(C)C | 43 to 45 °C
CCOC(=O)c1c(C)nn(C)c1CCl | 81 to 83 °C
CCCCCCCCCCCCCCCCCCOc1cn(-c2ccc(OCc3ccccc3)cc2)c(CNCCCN(C)C)cc1=O | 103 to 109 °C
CC(C)(C)c1ccc(Sc2cccc3c2C(=O)c2c(Sc4ccc(C(C)(C)C)cc4)ccc(Sc4ccc(C(C)(C)C)cc4)c2C3=O)cc1 | 228 to 229 °C
CC(C)(C)CC(C)(C)Nc1nc(NC(C)(C)C(C)(C)C)nc(N2CC3CCC(CC3)C2)n1 | 98 to 102 °C
CCCCN(CC)c1nc(C)nc2c1NC(=O)CN2c1ccc(C(C)C)cc1Br | 146 to 147 °C
CC(=O)Nc1ccc(C(=S)SCC(=O)O)cc1 | 224 to 226 °C
Nc1cc2n(n1)CCOC2 | 74 to 76 °C
COc1ccc(-c2ccc(C(C)=NO)cc2)cc1 | 82 to 84 °C
COC(=O)c1ccc(N)c(C(=O)C(=O)OC(=O)C(=O)c2cc(C(=O)OC)ccc2N)c1 | 256 to 257 °C
Fc1ccc(-c2cccc(F)n2)cc1 | 34 °C
CC(C)(C)OC(=O)c1c(N)sc2c1CCOC2CN1C(=O)c2ccccc2C1=O (configuration not stated) | 227 to 230 °C
COc1ccc(-c2cc(OC3SCC(O)C(O)C3O)ccn2)cc1 (configuration not stated) | 150 to 154 °C
CC(C)N(C)S(=O)(=O)NC(=O)c1cc(N)c(F)cc1Cl | 160 to 162 °C
O=C(c1c[nH]c(=O)[nH]1)c1cccs1 | 339 to 342 °C
CC(=O)c1ccc(S(=O)(=O)NCCc2ccc(CC(=O)O)cc2)cc1 | 193 to 194 °C
Nc1cccc(-c2ccc(CCN3CC4C(C3)C4NC(=O)Cc3ccc(F)cc3)cc2)n1 (configuration not stated) | 161 to 163 °C
O=C(OCC1OC(c2ccc(Cl)c(Cc3cc4ccccc4s3)c2)C(OC(=O)c2ccccc2)C(OC(=O)c2ccccc2)C1F)c1ccccc1 (configuration not stated) | 204 to 207 °C
CN(C)C=NS(=O)(=O)c1cc(Br)cc(Br)c1 | 157 to 158 °C
O=c1[nH]c2ccc(Cl)cc2n1-c1ccc(Cl)cc1 | 239 °C
CCc1cnccc1C[C@@H](O)C(Cl)(Cl)Cl | 132 to 134 °C
CCc1nc(N)nc(O)c1I | 199 to 200 °C

SMILES | melting point
COc1ccc(-c2nc(N3CCN(C)CC3)c3c(C)c(C#N)sc3n2)cc1OC | 208 to 209 °C
C=C(CN1c2ccccc2Sc2ccc(Cl)cc21)c1ccc(C(=O)Nc2ccccc2N)cc1 | 126 to 128 °C
O=C1CC2CC(C1)CN(Cc1ccccc1)C2 | 89 °C
C1=C(c2cccc3[nH]ccc23)CN(CCc2ccccc2)CC1 | 205 °C
COc1cn2nc(OCCCN3CCC(OC(c4ccccc4)c4ccccc4)CC3)ccc2n1 | 133 to 135 °C
COc1cc(NC2=C(Cl)C(=O)c3ccccc3C2=O)ccc1S(=O)(=O)Nc1cccc(C)c1 | 286 to 288 °C
COc1ccnc(C(=O)N[C@H]2COC(=O)[C@H](CCOC(=O)c3ccccc3)[C@@H](OC(=O)C(C)C)[C@H](C)OC2=O)c1OCOC(=O)C(C)C | 48 to 50 °C
COc1ccc(N2CCOCC2)c2sc(NC(=O)N(C)[C@H]3CC[C@@H](OC)CC3)nc12 | 198 to 200 °C
O=C1CC2(CCCCC2Cc2ccccc2)SCCN1 (configuration not stated) | 130 to 135 °C
O=C(Nc1ccc(Cl)cn1)c1cc(Cl)ccc1NCC1CCN(C2CCCC2)CC1 | 170 to 171 °C
Cc1ccc(C23CCC(O)(CC2)CC3)cc1 | 144 °C
O=[N+]([O-])c1ccc(-c2nc(CO)no2)cc1 | 155 to 156 °C
O=C(O)c1ccc(-c2nn(-c3ccc(C(=O)O)cc3)c3ccc([N+](=O)[O-])cc23)cc1 | 348 to 350 °C
Cn1cc(C(=O)O)c(=O)c2cc(Cl)c(N3CCNCC3)cc21 | 288 °C
COc1ccc(S(=O)(=O)n2ccc3ccnc(-c4ccc(N(C)C)cc4)c32)cc1 | 112 to 114 °C
O=C(OC1C2CN(Cc3ccccc3)CC1CN(C(=O)c1ccc(Cl)cc1)C2)c1ccccc1 (configuration not stated) | 165 °C
CC(=O)OC(C=C(C)C=CC=C(C)C=O)OC(C)=O | 99.5 °C
O=C=Nc1c(Cl)c(Cl)c(Cl)c(Cl)c1Cl | 100 to 102 °C
CN1CCC(c2c[nH]c3ccc(NS(=O)(=O)c4ccc(I)cc4)cc23)CC1 | > 250 °C
CNS(=O)(=O)Cc1ccc2[nH]cc(CCCN3C(=O)c4ccccc4C3=O)c2c1 | 58 to 66 °C
CCNc1nc(C)nc(O)c1C(C)C | 180 °C
COC(=O)CCc1conc1-c1ccc(Cl)cc1 | 56 to 57 °C
Cc1c(C#N)c(-c2ccc(C#N)cc2)c(C)n1Cc1ccc(Cl)c(C(O)C(F)(F)F)c1 (configuration not stated) | 196 to 198 °C
O=c1[nH]c2ccccc2n1C/C=C/CCl | 120 °C

SMILES | melting point
O=C1NC(c2ccccc2)(c2ccccc2)C(=O)N1CCl | 161 to 162 °C
CCOC(=O)C12CC1CN(S(=O)(=O)c1ccc(C)cc1)C2c1ccccc1 (configuration not stated) | 123 to 124 °C
Cc1ccc2nc(-c3cc(C(F)(F)F)nn3-c3ccc(S(C)(=O)=O)cc3)oc2c1 | 209 to 210 °C
O=c1[nH]c2c(c3nc(-c4ccccc4)nn13)CN(Cc1ccccc1)CC2 | 257 to 259 °C
CN(C)C(=N)CSc1nnc(S)s1 | 95 to 97 °C
OC1OC(C2(c3ccccc3)CN2)N2CC12c1ccccc1 (configuration not stated) | 53 to 55 °C
CCOC(=O)C1OC1c1ccc(OC)cc1 (configuration not stated) | 40 to 43 °C
CO[C@H]1CC[C@H](C(=O)N2CCC(c3[nH]nc4c3C(=O)c3c(NC(=O)NN5CCOCC5)cccc3-4)CC2)CC1 | 178 to 180 °C
CC(C)(C)c1cc(C(=O)N2CCN(c3ccc(N)cc3)CC2)cc(C(C)(C)C)c1O | 221 to 222 °C
O=C(O)C1=Cc2ccc(Cl)c(Cl)c2OC1C(F)(F)F (configuration not stated) | 220 to 221 °C
COc1ccc(-c2ccc(C(CCC(=O)O)=NO)cc2)cc1 | 157 to 160 °C
CNc1cc(-n2cc(C(=O)O)c(=O)c3cc(F)c(F)c(C)c32)c(F)cc1F | 238 °C
O=C(O)C1Cc2ccccc2CN1C(=O)c1ccc(Cl)cc1 (configuration not stated) | 77 to 79 °C
CC1SC(=O)NN=C1c1ccc2c(c1)C1(CCCS1)C(=O)N2 (configuration not stated) | 205 °C
CN1C(=O)CN=C(c2ccccc2F)c2cc(NC(=O)NCCCl)ccc21 | 240 °C
c1cc(N2CCOCC2)c2c(c1)-n1cnc(-c3nc(C4CC4)no3)c1N1CCN=C21 | 217 to 220 °C
CC(C)OC(=O)N[C@H]1CC[C@H](CCN2CCN(c3cccc(Cl)c3Cl)CC2)CC1 | 128 to 131 °C
Brc1ccc(C23CC4(c5ccc(Br)cc5)CC(c5ccc(Br)cc5)(C2)CC(c2ccc(Br)cc2)(C3)C4)cc1 | 354 °C
CSC1=C(C#N)C(c2ccc(N(C)C)cc2)(c2cccnc2)C(=O)N1CCCN(C)C (configuration not stated) | 90 to 91 °C
COc1cc(Br)c(OC)c(C=O)c1 | 62 to 64 °C
CNC(=O)ON=C1SC(C)C(=O)N1N(C)C (configuration not stated) | 110 to 113 °C
CCOC(=O)C(C)Sc1ncnc2c(O)n(C)nc12 (configuration not stated) | 127 to 131 °C
CCONC(=O)c1cc(Br)c(Br)s1 | 117 to 119 °C

Next, values leading:

melting point | SMILES
113 °C | COCc1cc(OCc2ccccc2)c2nc(C)n(C)c2c1
202 to 205 °C | O=C(Nc1ccc(Br)c(C(F)(F)F)c1)c1cccnc1NCn1ccccc1=O
124 to 129 °C | Cc1nnc(-c2ccccc2F)n2nc(OCc3ncnn3C)c(-c3ccsc3)c12
158 to 160 °C | Cn1ccnc1CC1COc2ccccc2O1 (configuration not stated)
247 to 250 °C | Cc1c(O)nc2sc(SCc3ccccc3)nn2c1=O
124 to 126 °C | Cc1cc(C)nc(-n2ccnc2SCc2ccccc2NC=O)c1
340 to 350 °C | O=C1NCc2c1c(O)nc1ccccc21
98 °C | CN(C)CCCOc1ccccc1CC(=O)O
200 to 202 °C | CC1(C)OC(=O)Nc2ccc(-c3sccc3C#N)cc21
143 to 145 °C | COc1nc(C)cnc1N(C(=O)OCC(C)C)S(=O)(=O)c1cccnc1-c1ccc(C)cc1
136 to 137 °C | CC(C)c1nc(-c2ccccc2)c(F)c(-c2ccc(F)cc2)c1C=O
152 to 154 °C | CC1=NC(NC(=O)Nc2cc(C)ccn2)C(=O)N(CC(=O)N2CC3CCC(CC3)C2)c2c(C)cccc21 (configuration not stated)
153 to 155 °C | CC1Cc2ccccc2C(=O)C1n1ccnc1 (configuration not stated)
166 to 168 °C | CC(C(=O)Oc1cc(=O)n(-c2ccccc2)c2ncccc12)c1ccccc1 (configuration not stated)
122 to 124 °C | COc1ccc(-c2ccc(OC)cc2[N+](=O)[O-])cc1
208 to 211 °C | CC(C)(O)Cn1c(Oc2ccc(-n3c4ncccc4n4ccnc34)cc2)nc2ccccc21

melting point | SMILES
254 to 257 °C | CCCn1nc2c(N)nc3ncccc3c2c1CC(C)(C)C(N)=O
235 to 237 °C | Cc1nnc2ccc(-c3cccc(N4CCCC4=O)c3)nn12
> 270 °C | CSc1ncc(C(=O)NCCO)c(Nc2ccc3[nH]ncc3c2)n1
127 to 128 °C | COCN1C(=O)C(=C/c2ccccc2)/C(=C\c2cc(OC)c(OC)c(OC)c2)C1=O
135 to 136 °C | CC1(C)OC(=O)C(Oc2ccccc2)=C1c1ccc(S(C)(=O)=O)cc1
190 °C | Cc1cc(O)cc(C)c1Sc1ccccn1
252 to 254 °C | COc1ccc(-c2nnc3c4ccccc4c(CC#N)nn23)cc1
209 to 211 °C | CCCCOc1ccccc1Nc1ncc(C(=O)OCC)c(=O)[nH]1
253 to 254 °C | Nc1ccccc1C(=O)Nc1nnn[nH]1
94 to 95 °C | CS(=O)(=O)N(CCc1ccccc1)Cc1cccnc1
95 to 105 °C | CCOCCCC1(O)c2ccccc2C=Cc2ccc(I)cc21 (configuration not stated)
240 to 241 °C | Cc1c(-c2cccc(O)c2)sc(C#N)c1-c1ccc(O)cc1
185 to 187 °C | COc1ccc(S(=O)(=O)Nc2ccccc2Nc2ccncc2)cc1
195 to 197 °C | COc1nc2cc(Cl)ccc2c(=O)c2sccc12
127 to 128 °C | COc1ccc(C(=O)Nc2ccccc2C(O)Cc2ccccn2)cc1 (configuration not stated)
